According to patent publication US10208056B2, “Condensed tricyclic compounds as protein kinase inhibitors” (FUNDACIÓN DEL SECTOR PÚBLICO ESTATAL CENTRO NACIONAL DE …, priority 2015, dated 2019):
Like-named read-outs stand apart in the source and are kept apart here.

How the values were obtained:
[1] = molecular target: CDK8/Cyclin C (Homo sapiens (Human), UniProt P49336); test: CDK8/Cyclin C binding assay (LanthaScreen Eu-Kinase Binding Assay); conditions: binding assay
Method: The enzyme has been purchase from Invitrogen (PV4402) as a dimer of full-length His-tagged recombinant human proteins.
Assays were performed in 384-well plates. The final read out was generated using an EnVision plate reader (Perkin-Elmer).

[2] = molecular target: Haspin kinase (Homo sapiens (Human), UniProt Q8TF76); test: Haspin kinase assay (ADP-Glo); assay type: biochemical; conditions: ATP 150 μM
Procedure, shortened: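 ADP-Glo luminescence measured the intrinsic ATPase activity, without peptide substrate, of the GST-tagged human Haspin kinase domain (20 nM) at 150 μM ATP. Reactions ran 60 min at 30 °C in HEPES pH 7.4 buffer with 10 mM MgCl2 and 1% DMSO. Inhibition was calculated against no-compound controls across 1:3 dilution series.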

[3] = molecular target: T1, intracellular CDK8 (Homo sapiens (Human), UniProt P49336); test: Cellular CDK8 inhibition assay, western blot P-STAT1 (S727) in IFN-γ treated SW620 cells; assay type: cell-based; conditions: SW620, IFNγ treated, semiquantitative; read-out: SW620 P-STAT1(S727) w IFNγ
Method: Compounds can be screened for their ability to inhibit intracellular CDK8 using a western blot assay to detect phosphorylation of the CDK8 substrate STAT1 (S727) in IFN-γ treated cells. SW620 cells are plated at 1*10^6 cells per well in 6-well plates (Solmeglas 13118) in RPMI media (Sigma-Aldrich R6504) supplemented with 10% foetal bovine serum (Sigma-Aldrich F7524), Penicillin/Streptomycin solution diluted 1:100 (Gibco 15070-063), and fungizone (Gibco, 15290-018), and allowed to adhere overnight at 37° C. in 5% CO2. Compounds are then added to the cell media from a final concentration of 10 μM in 10-fold serial dilutions and the cells are incubated at 37° C. in 5% CO2. After 1 hour, IFNγ (R&D systems Ref. RYD-285-IF-100) is added to a final concentration of […]. After 3 hours of treatment with IFNγ, the cells are washed in PBS, lysed adding 100 μl of protein lysis buffer (62.5 mM Tris pH 6.8 al 6.25%, 2% SDS y 10% glycerol) incubation 10 minutes at room temperature and heating at 95° C. 10 min. The protein content of the lysates is determined by DC protein assay (Biorad, Ref. 5000116). The proteins are resolved by SDS-PAGE and transferred to nitrocellulose membrane (VWR International eurolab, Ref. 732-4007). The membranes are incubated overnight at 4° C. with antibodies specific for total STAT1 (BD Transduction laboratory #610115), phosphoserine-727 STAT1 (Cell Signaling Ref. 9177) they are washed and then incubated with IRDye800 conjugated anti-mouse (Pierce/Cultek, 35521) and Alexa Fluor 680 goat anti-rabbit IgG secondary antibodies (Invitrogen, A21076). The bands are visualized and quantified using an Odyssey infrared imaging system (Li-Cor Biosciences). The percentage of phosphorylated STAT1 vs total STAT1 in cells treated with IFNγ is taken as hundred percent of phosphorylation. The percentage of STAT1 phosphorylation is finally plotted against concentration for each compound and EC50s for intracellular CDK8 inhibition are calculated using ActivityBase from IDBS.

[4] = molecular target: T2, intracellular HASPIN (Homo sapiens (Human), UniProt Q8TF76); test: Cellular HASPIN inhibition assay, western blot phospho H3T3 in synchronized SW620 cells; assay type: cell-based; conditions: semiquantitative, read-out: SW620 PH3(T3) in synchronized cells
Method: Compounds can be screened for their ability to inhibit intracellular HASPIN using a western blot assay to detect phosphorylation of the HASPIN substrate H3T3 in synchronized cells. SW620 cells are plated at 200000 cells per well in 6-well plates (Solmeglas 13118) in RPMI media (Sigma-Aldrich R6504) supplemented with 10% foetal bovine serum (Sigma-Aldrich F7524), Penicillin/Streptomycin solution diluted 1:100 (Gibco 15070-063), and fungizone (Gibco, 15290-018), and allowed to adhere overnight at 37° C. in 5% CO2. Cells are then treated 16 h hours with Nocadazole (Sigma-Aldrich M1404) at 250 ng/ml to arrest them in mitosis. Proteasoma inhibitor MG132 (Sigma-Aldrich C2211) is added to a final concentration of […] to keep cells arrested in mitosis. Compounds are then added to the cell media from a final concentration of 10 μM in 10-fold serial dilutions and the cells are incubated at 37° C. in 5% CO2. After 1 hour and 30 minutes of treatment with the compounds, the cells are washed in PBS, lysed adding 100 μl of protein lysis buffer (62.5 mM Tris pH 6.8 al 6.25%, 2% SDS y 10% glycerol) incubation 10 minutes at room temperature and heating at 95° C. 10 min. The protein content of the lysates is determined by DC protein assay (Biorad, Ref. 5000116). The proteins are resolved by SDS-PAGE and transferred to nitrocellulose membrane (VWR International eurolab, Ref. 732-4007). The membranes are incubated overnight at 4° C. with antibodies specific for total H3 (Millipore #07424), phosphothreonine-3 H3 (Cell Signaling Ref. 14269) they are washed and then incubated with IRDye800 conjugated anti-mouse (Pierce/Cultek, 35521) and Alexa Fluor 680 goat anti-rabbit IgG secondary antibodies (Invitrogen, A21076). The bands are visualized and quantified using an Odyssey infrared imaging system (Li-Cor Biosciences). The percentage of phosphorylated H3 vs total H3 in synchronized cells is taken as hundred percent of phosphorylation. The percentage of H3 phosphorylation is finally plotted against concentration for each compound and EC50s for intracellular HASPIN inhibition are calculated using ActivityBase from IDBS.

[5] = molecular target: CDK19/Cyclin C (Homo sapiens (Human), UniProt Q9BWU1); test: CDK19/Cyclin C binding assay (LanthaScreen Eu-Kinase Binding Assay); conditions: read-out: CDK19-CYCC IC50
Procedure, shortened: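 LanthaScreen TR-FRET tracer-displacement format with 2 nM Cdk19-Cyclin C, 20 nM tracer and 2 nM Eu-anti-GST antibody. The buffer was 50 mM HEPES pH 7.5, 10 mM MgCl2, 1 mM EGTA, 0.01% Brij-35, with 1% DMSO final. Compounds were tested as 1:3 serial dilutions and incubated for 60 min at 25 °C.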

[6] = molecular target: T1, intracellular CDK8; test: Endogenous phosphoSTAT1 inhibition in SW620 cells growing in 10% FBS; assay type: cell-based; conditions: semiquantitative, read-out: SW620 P-STAT1(S727)
Method: (§1) Endogenous phosphoSTAT1 inhibition can be screened in cells growing in 10% FBS. Cells are plated as described before and treated for 8 h with compounds as described before. Then cells are lysated and phospho STAT1 is evaluated as described before. The percentage of phosphorylated STAT1 vs total STAT1 in cells treated with DMSO is taken as hundred percent of phosphorylation. The percentage of STAT1 phosphorylation is finally plotted against concentration for each compound and EC50s for intracellular CDK8 inhibition are calculated using ActivityBase from IDBS.

[7] = molecular target: T2, intracellular HASPIN; test: Endogenous phosphoH3 inhibition in SW620 cells growing in 10% FBS; assay type: cell-based; conditions: semiquantitative, read-out: SW620 pH3(T3)
Method: as §1, with “phosphoH3” for “phosphoSTAT1”, “H3” for “STAT1 is”, “H3” for “STAT1”, “HASPIN” for “CDK8”

[8] = tested on: MV4:11; test: In vitro cell proliferation assay (CellTiter-Glo), MV4:11; assay type: cell-based; conditions: growth inhibition, semiquantitative, read-out: GI50 MV4:11
Method: (§2) The in vitro potency of the compounds was measured by the cell proliferation assay CellTiter-Glo® Luminescent Cell Viability Assay, commercially available from Promega Corp., Madison, Wis. This homogeneous assay method is based on the recombinant expression of Coleoptera luciferase (U.S. Pat. No. 5,583,024; U.S. Pat. No. 5,674,713; U.S. Pat. No. 5,700,670) and determines the number of viable cells in culture based on quantitation of the ATP present, an indicator of metabolically active cells (Crouch et al (1993) J. Immunol. Meth. 160:81-88; U.S. Pat. No. 6,602,677). The CellTiterGlo® Assay was conducted […] it amenable to automated high throughput screening (HTS) (Cree et al (1995) AntiCancer Drugs 6:398-404).
(§3) The homogeneous assay procedure involves adding the single reagent (CellTiter-Glo® Reagent) directly to cells cultured in serum-supplemented medium. Cell washing, removal of medium and multiple pipetting steps are not required. The system detects as few as 15 cells/well in a 96-well format in 10 minutes after adding reagent and mixing.
(§4) The homogeneous “add-mix-measure” format results in cell lysis and generation of a luminescent signal proportional to the amount of ATP present. The amount of ATP is directly proportional to the number of cells present in culture. The CellTiter-Glo® Assay generates a “glow-type” luminescent signal, produced by the luciferase reaction, which has a half-life generally greater than five hours, depending on cell type and medium used. Viable cells are reflected in relative luminescence units (RLU). The substrate, Beetle Luciferin, is oxidatively decarboxylated by recombinant firefly luciferase with concomitant conversion of ATP to AMP and generation of photons. The extended half-life eliminates the need to use reagent injectors and provides flexibility for continuous or batch mode processing of multiple plates. This cell proliferation assay can be used with various multiwell formats, e.g. 96 or 384 well format. Data can be recorded by luminometer or CCD camera imaging device. The luminescence output is presented as relative light units (RLU), measured over time.

[9] = tested on: MDA-MB-231; test: In vitro cell proliferation assay (CellTiter-Glo), MDA-MB-231; assay type: cell-based; conditions: growth inhibition, semiquantitative, read-out: GI50 MDA-MB-231
Method: as §2, §3, §4

[10] = tested on: SW620; test: In vitro cell proliferation assay (CellTiter-Glo), SW620; assay type: cell-based, human; conditions: growth inhibition, semiquantitative, read-out: GI50 SW620
Method: as §2, §3, §4

[11] = tested on: Molm13; test: In vitro cell proliferation assay (CellTiter-Glo), Molm13; assay type: cell-based; conditions: growth inhibition, semiquantitative, read-out: GI50 Molm13
Method: as §2, §3, §4

CDK19/Cyclin C, sequence (Q9BWU1 whole entry): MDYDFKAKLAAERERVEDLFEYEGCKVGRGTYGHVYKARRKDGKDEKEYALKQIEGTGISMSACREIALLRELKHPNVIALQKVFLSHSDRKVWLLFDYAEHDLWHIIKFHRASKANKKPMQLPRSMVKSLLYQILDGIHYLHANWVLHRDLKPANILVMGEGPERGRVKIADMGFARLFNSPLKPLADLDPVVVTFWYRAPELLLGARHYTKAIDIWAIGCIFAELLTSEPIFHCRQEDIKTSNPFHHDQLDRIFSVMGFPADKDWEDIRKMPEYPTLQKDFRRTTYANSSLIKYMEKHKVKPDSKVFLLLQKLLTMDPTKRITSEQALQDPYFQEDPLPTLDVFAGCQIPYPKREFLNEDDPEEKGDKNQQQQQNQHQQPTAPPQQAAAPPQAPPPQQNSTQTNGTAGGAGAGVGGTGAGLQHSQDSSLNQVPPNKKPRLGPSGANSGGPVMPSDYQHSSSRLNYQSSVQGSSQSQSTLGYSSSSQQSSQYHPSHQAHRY
CDK19/Cyclin C, sequence (P24863 whole entry partner): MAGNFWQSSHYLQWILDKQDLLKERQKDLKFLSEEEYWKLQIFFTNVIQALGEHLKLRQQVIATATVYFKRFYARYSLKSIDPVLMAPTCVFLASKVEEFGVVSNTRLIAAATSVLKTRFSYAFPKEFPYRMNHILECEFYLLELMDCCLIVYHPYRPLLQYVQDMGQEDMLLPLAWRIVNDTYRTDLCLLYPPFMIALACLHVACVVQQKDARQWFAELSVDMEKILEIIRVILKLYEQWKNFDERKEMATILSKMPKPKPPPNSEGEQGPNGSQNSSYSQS
T2 sequence (Q8TF76 whole entry): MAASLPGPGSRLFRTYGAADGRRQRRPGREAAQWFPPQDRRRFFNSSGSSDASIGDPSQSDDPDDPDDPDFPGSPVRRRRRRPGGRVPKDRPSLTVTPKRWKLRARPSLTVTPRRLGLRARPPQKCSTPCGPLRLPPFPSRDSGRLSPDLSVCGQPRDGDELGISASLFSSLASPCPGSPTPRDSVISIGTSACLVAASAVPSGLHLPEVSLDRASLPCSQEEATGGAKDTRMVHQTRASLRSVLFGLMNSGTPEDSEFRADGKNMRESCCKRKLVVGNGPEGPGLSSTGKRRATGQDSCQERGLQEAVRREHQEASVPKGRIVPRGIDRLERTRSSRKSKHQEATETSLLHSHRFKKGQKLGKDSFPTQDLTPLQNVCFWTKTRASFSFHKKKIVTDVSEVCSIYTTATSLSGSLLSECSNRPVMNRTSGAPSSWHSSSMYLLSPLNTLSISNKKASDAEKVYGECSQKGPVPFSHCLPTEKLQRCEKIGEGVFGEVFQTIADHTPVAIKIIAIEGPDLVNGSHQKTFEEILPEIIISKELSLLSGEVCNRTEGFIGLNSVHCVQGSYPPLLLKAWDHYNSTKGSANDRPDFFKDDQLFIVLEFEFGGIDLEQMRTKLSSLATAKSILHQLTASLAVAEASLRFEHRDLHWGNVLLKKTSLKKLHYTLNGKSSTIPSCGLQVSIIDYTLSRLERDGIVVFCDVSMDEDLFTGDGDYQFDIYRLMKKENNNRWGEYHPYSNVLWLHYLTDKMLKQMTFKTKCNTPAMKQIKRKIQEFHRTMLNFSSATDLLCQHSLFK
T1 sequence (P49336 whole entry): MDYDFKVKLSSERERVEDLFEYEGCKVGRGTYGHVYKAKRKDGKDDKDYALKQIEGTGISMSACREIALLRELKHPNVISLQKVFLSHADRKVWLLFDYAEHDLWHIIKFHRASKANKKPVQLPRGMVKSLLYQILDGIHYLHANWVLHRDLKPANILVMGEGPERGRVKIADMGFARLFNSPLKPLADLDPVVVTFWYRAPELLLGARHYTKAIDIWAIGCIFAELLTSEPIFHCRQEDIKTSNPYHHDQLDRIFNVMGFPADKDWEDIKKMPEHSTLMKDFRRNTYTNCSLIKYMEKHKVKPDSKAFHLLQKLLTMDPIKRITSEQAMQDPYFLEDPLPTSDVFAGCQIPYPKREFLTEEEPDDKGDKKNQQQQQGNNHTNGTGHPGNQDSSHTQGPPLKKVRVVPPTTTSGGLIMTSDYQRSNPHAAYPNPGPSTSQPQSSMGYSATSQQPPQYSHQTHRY
T1 sequence (P24863 whole entry partner): as the sequence (P24863 whole entry partner) above
T1 sequence (Q93074 whole entry partner): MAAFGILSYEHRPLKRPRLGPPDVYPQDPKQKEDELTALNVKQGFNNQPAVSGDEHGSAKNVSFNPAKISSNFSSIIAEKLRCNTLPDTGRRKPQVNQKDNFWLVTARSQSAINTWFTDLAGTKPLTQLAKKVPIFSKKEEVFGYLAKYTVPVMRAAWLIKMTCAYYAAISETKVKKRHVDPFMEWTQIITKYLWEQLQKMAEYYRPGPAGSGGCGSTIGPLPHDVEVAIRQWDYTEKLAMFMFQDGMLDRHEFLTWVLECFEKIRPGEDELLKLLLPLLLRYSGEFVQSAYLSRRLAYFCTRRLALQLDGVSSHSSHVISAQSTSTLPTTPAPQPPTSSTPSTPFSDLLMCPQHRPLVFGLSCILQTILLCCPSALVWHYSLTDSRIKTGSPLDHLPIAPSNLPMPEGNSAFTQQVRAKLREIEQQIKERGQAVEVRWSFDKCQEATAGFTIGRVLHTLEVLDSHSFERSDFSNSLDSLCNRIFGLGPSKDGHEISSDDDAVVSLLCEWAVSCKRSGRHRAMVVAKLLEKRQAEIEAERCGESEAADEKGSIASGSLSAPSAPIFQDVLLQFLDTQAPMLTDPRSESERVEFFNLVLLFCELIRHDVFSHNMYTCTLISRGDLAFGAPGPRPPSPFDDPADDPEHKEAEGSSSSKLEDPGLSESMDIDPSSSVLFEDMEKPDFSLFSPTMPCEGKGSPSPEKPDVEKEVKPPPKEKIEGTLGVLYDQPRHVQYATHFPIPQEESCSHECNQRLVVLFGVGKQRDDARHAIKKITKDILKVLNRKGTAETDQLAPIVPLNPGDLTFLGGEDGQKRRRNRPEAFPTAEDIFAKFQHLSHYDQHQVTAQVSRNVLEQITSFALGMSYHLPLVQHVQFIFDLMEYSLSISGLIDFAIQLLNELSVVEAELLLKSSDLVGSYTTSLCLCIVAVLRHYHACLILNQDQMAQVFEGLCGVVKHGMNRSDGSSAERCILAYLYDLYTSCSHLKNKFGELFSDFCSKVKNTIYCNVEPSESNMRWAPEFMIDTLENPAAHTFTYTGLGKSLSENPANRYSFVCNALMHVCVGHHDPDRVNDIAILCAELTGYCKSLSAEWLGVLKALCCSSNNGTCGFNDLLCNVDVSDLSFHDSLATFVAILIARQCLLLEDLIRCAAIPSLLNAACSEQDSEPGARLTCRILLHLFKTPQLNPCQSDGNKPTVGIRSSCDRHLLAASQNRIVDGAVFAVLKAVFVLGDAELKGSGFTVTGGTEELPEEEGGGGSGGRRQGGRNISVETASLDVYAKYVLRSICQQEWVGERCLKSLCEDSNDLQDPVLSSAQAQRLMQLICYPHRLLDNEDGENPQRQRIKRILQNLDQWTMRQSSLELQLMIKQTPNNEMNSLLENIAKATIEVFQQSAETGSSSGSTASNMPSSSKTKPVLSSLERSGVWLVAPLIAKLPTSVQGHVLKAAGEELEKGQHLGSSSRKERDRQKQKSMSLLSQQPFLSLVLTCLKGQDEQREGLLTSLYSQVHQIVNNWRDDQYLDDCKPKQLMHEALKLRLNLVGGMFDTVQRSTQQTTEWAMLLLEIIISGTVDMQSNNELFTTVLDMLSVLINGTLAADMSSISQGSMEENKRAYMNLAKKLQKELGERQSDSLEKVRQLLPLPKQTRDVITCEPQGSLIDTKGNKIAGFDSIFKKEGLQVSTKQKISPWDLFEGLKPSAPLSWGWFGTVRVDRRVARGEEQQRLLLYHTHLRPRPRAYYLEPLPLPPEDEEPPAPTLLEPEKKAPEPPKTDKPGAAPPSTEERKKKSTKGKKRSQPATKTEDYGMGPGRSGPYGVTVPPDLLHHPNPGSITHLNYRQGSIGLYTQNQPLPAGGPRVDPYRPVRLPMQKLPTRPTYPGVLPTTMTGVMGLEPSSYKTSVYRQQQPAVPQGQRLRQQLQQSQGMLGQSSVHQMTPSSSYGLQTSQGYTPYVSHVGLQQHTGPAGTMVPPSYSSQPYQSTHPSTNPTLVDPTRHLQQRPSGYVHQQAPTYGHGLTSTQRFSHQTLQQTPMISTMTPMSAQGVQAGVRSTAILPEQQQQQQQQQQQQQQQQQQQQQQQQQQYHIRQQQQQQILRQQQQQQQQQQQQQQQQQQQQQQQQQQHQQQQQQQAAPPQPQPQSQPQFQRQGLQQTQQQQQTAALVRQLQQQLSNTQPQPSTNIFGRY
CDK8/Cyclin C, sequence (P49336 whole entry): as the sequence (P49336 whole entry) above
CDK8/Cyclin C, sequence (P24863 whole entry partner): as the sequence (P24863 whole entry partner) above
Haspin kinase, sequence (Q8TF76 484-798): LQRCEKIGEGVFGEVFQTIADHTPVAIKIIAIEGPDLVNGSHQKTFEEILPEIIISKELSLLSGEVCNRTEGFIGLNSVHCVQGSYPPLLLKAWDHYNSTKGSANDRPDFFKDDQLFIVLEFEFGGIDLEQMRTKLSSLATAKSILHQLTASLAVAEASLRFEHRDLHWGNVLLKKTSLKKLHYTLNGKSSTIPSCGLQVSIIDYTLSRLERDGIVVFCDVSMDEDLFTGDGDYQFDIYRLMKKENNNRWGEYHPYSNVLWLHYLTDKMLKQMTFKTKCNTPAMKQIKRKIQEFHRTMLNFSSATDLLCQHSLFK

IC50 [1] [nM] | IC50 [2] [nM] | EC50 [3] [nM] | EC50 [4] [nM] | IC50 [5] [nM] | EC50 [6] [nM] | EC50 [7] [nM] | GI50 ([8]; Homo sapiens, MV4-11) [nM] | GI50 ([9]; Homo sapiens, MDA-MB-231) [nM] | GI50 ([10]; Homo sapiens, SW-620) [nM] | GI50 ([11]; Homo sapiens, MOLM-13) [nM] | GI50 [8] [nM] | GI50 [9] [nM] | GI50 [10] [nM] | GI50 [11] [nM] | Structure (SMILES)
281 | 5760 | 500 to 10000 | 500 to 10000 | – | – | – | – | – | – | – | – | – | – | – | NC(=O)c1cc2c([nH]1)-c1ccncc1O[C@@H]2C1CCOCC1 (single isomer, unassigned) [Example 71]
2.19 | 12.8 | – | – | 4.58 | < 500 | < 500 | < 1000 | 1000 to 10000 | 1000 to 10000 | < 1000 | – | – | – | – | CCn1c(C(N)=O)cc2c1-c1ccncc1OC21CCOCC1 [Example 82]
1.41 | 42.1 | – | – | 148 | < 500 | < 500 | < 1000 | 1000 to 10000 | 1000 to 10000 | < 1000 | – | – | – | – | NC(=O)c1cc2c(n1CCF)-c1ccncc1OC21CCCCC1 [Example 84]
301 | 16.5 | – | < 500 | – | – | < 500 | < 1000 | 1000 to 10000 | 1000 to 10000 | < 1000 | – | – | – | – | CCn1c(C(N)=O)cc2c1-c1ccncc1OC21CCNCC1 [Example 91]
1.36 | 522 | – | – | 1.41 | < 500 | < 500 | – | – | – | – | < 1000 | 10000 to 100000 | 10000 to 100000 | 1000 to 10000 | CCn1c(C(N)=O)cc2c1-c1ccncc1O[C@@H]2C1CCCCC1 (single isomer, unassigned) [Example 90]
4.64 | 182 | < 500 | < 500 | 11.5 | – | – | – | – | – | – | – | – | – | – | COCCn1c(C(N)=O)cc2c1-c1ccncc1OC2(C)C [Example 45]

Structure (SMILES) | IC50 [1] [nM] | IC50 [2] [nM] | EC50 [3] [nM] | EC50 [4] [nM] | IC50 [5] [nM] | EC50 [6] [nM] | EC50 [7] [nM] | GI50 ([8]; Homo sapiens, MV4-11) [nM] | GI50 ([9]; Homo sapiens, MDA-MB-231) [nM] | GI50 ([10]; Homo sapiens, SW-620) [nM] | GI50 ([11]; Homo sapiens, MOLM-13) [nM] | GI50 [8] [nM] | GI50 [9] [nM] | GI50 [10] [nM] | GI50 [11] [nM]
CCn1c(C(N)=O)cc2c1-c1ccncc1OC21CCN(CC(F)(F)F)CC1 [Example 79] | 1.11 | 38.6 | – | – | 3.14 | < 500 | < 500 | < 1000 | 1000 to 10000 | 1000 to 10000 | < 1000 | – | – | – | –
